Experimental data taken from article PMC6406325, “ATP- and Polyphosphate-Dependent Glucokinases from Aerobic Methanotrophs” (Microorganisms, 2019).

Key:
Type in all cases: biochemical, Methylomonas sp. 12
[1] = molecular target: T1, ATP-Glk (Methylomonas sp., UniProt A0A3G4RI75); test: effect on glucokinase activity with ATP and glucose
T1 construct: full-length, His6-tagged (N-terminal), pET30(a)+ in E. coli Rosetta (DE3), Ni-NTA; gene 990 bp; di- to hexamers
Excerpt: effect on glucokinase activity with ATP and glucose on ATP-Glk

[2] = molecular target: T2, polyP-Glk (Methylomonas sp., UniProt A0A3G4RHV5); test: effect on glucokinase activity with polyP and glucose; details: polyP (n=45) and glucose as substrates; activator, not a phosphoryl donor; ATP concentration not printed in table (10 mM elsewhere in the source)
T2 construct: gene pglk; full-length, His6-tagged (N-terminal), E. coli Rosetta (DE3), Ni-NTA; gene 795 bp; dimer with polyP
Excerpt: effect on glucokinase activity with polyP and glucose on polyP-Glk

[3] = molecular target: T1, ATP-Glk; test: glucose 6-phosphate dehydrogenase coupled NADP+ reduction at […] nm; details: saturating ATP; Mg2+; pH 7.5; 30 °C
[4] = molecular target: T2, polyP-Glk; test: as above; details: saturating polyP (n=45); Mg2+; pH 8.5; 28 °C
[5] = test system: T3, Nc1ncnc2c1ncn2[C@@H]1O[C@H](COP(=O)(O)OP(=O)(O)OP(=O)(O)O)[C@@H](O)[C@H]1O; test: purified protein; details: saturating glucose, Mg2+, pH 7.5, 30 °C
T3 construct: full-length, His6-tagged (N-terminal), pET30(a)+ in E. coli Rosetta (DE3), Ni-NTA; gene 990 bp; di- to hexamers

T1 sequence (A0A3G4RI75 1-329): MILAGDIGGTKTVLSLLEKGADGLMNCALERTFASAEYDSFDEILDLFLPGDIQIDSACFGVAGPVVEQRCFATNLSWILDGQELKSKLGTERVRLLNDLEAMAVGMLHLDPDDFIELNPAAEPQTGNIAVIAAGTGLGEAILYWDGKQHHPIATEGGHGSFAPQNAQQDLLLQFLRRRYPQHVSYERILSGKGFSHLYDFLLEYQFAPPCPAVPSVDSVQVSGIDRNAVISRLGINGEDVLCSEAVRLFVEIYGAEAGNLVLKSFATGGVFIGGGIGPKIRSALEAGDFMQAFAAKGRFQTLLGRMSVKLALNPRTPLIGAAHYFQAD
T2 sequence (A0A3G4RHV5 1-264): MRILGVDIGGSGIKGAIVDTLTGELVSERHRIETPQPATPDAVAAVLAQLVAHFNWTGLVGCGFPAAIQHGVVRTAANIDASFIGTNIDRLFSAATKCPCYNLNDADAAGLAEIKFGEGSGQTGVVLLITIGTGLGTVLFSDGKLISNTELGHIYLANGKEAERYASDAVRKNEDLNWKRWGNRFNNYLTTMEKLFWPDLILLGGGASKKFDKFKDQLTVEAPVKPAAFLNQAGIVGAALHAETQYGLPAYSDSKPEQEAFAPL

## Nc1ncnc2c1ncn2[C@@H]1O[C@H](COP(=O)(O)OP(=O)(O)O)[C@@H](O)[C@H]1O [ADP]
[1]
  activity at 5000 µM: 48.9%

## Nc1ncnc2c1ncn2[C@@H]1O[C@H](COP(=O)(O)OP(=O)(O)OP(=O)(O)O)[C@@H](O)[C@H]1O [ATP]
[2]
  PolyP-Glk **: 155.0%

## OC[C@H]1OC(O)[C@H](O)[C@@H](O)[C@@H]1O (stereo partly shown) [glucose]
[3]
  Km: 80 ± 7 µM
[4]
  Km: 450 ± 120 µM

## ATP-Glk (Methylomonas methanica)
[5]
  Km: 78 ± 5.6 µM
  kcat: 0.126 s⁻¹
  kcat/Km: 1610 M⁻¹ s⁻¹
